According to patent publication EP2365091A1, “Method of screening for HtrA protease inhibitors useful for prophylaxis and therapy of a bacterial infection” (Paul-Ehrlich-Institut, priority 2010, dated 2011):
Entries after “also recorded” stand apart in the source; their conditions may differ.

Legend:
MKN-28 cells [1] = assay: Hp-induced ectopic E-Cadherin shedding in infected cells (Western blot of supernatants and lysates); assay type: cell-based, human; details: 100 µM HHI
Method: The human gastric adenocarcinoma cell line MKN-28 was grown in RPMI1640 medium (Biochrom, Berlin, Germany) and human breast cancer cells (MCF-7) in DMEM medium (Biochrom) containing 4 mM glutamine (Invitrogen, Karlsruhe, Germany]), and 10% FCS (Biowest, Nuaillé, France) in a humidified 5% CO2 (MKN-28) or 10% CO2 (MCF-7) atmosphere at 37°C. Cells were seeded in tissue culture plates 48 hours before infection and grown to confluence. 1-2 h hours prior to infection, medium was replaced by fresh serum-free media. Where indicated, cells were incubated with indicated concentrations of HHI or MMP inhibitor II (blocks MMP1, MMP3, MMP7 and MMP9) (Calbiochem, Merck , Darmstadt, Germany).
Hp strains Hp26695 and P12 were cultured on agar plates containing 10% horse serum under microaerophilic conditions at 37°C for 48 hours. For infection, bacteria were harvested in PBS Dulbecco's medium, pH 7.4, added to the host cells at a multiplicity of infection (MOI) of 50 or 100 for the indicated time periods and monitored using an inverse phase-contrast microscope (model TS 100, INTAS). To quantify bacteria translocating through cellular monolayers, MKN-28 cells were grown to confluence on filters prior to infection with Hp for 48 h. Translocating Hp were cultured and CFU were counted. All experiments were repeated 3-4 times. […]

interleukin-8 (IL-8) = assay: Interleukin-8 (IL-8) ELISA; assay type: cell-based, human; details: MKN-28, Hp 8 h, 16 h and 36 h, 100 µM HHI (Fig. 12B)
Method: Determination of IL-8 release was performed by applying a commercially available IL-8 specific ELISA assay system (Bender Medsystems, eBioscience Inc., San Diegeo, CA, USA). In brief, MKN-28 cells were incubated with Hp 8-36 h. Cell culture supernatants were collected, centrifuged, and stored at -80°C for subsequent IL-8 quantification. The IL-8 release was determined as recommend by the manufacturer's instructions.

CagA = CagA injection and phosphorylation in infected monolayers (Western blot); assay type: cell-based, Helicobacter pylori; details: MKN-28 monolayers
Method: Cells were harvested in lysis buffer (20 mM Tris-HCl, pH 7.5, 1 mM ETDA, 100 mM NaCl, 1% Triton X-100, 0.5 % sodium deoxycholate, 0.1% SDS, 1 x complete protease inhibitors (Roche, Basel, Switzerland), 1 mM Na3VO4, 1 mM sodium molybdate, 20 mM NaF, 10 mM sodium pyrophosphate, 20 mM β-glycerophosphate) and separated by SDS-PAGE. Proteins were transferred onto PVDF membranes, blocked with RotiBlock (Roth, Karlsruhe, Germany), and probed with anti-E-Cadherin cl. 36 (detects intracellular E-Cadherin domain). To detect CTF1 and CTF2 by Western blots an anti-E-Cadherin polyclonal antibody from Cell Signaling Technologies , Danvers, MA, USA] was used. Quantification of CTF and NTF fragments was performed using the Fusion FX-7 image analyzer and Bio-1D analysis software (Vilber Lourmat Deutschland GmbH, Eberhardzell, Germany). Monoclonal antibodies HecD1 and H-108 against the extracellular domain of E-Cadherin (NTF) were obtained from Calbiochem, Merck, Darmstadt, Germany and Santa Cruz, Santa Cruz, CA, USA, respectively. Expression of Occludin, ZO-1 (Invitrogen), JAM1, β-Catenin, p120^ctn (BD Biosciences, New Jersey, USA), ADAM10, EGFR (Santa Cruz), GAPDH (Abcam, Cambridge, UK), β-Actin (Sigma), CagA (Aalto Bio Reagents Ltd., Dublin, Ireland) was analyzed using specific antibodies. […]

MMP-7 = molecular target: T1, MMP-7 (Homo sapiens, UniProt P09237); assay: In vitro cleavage of recombinant E-Cadherin by MMP-7 (Western blot); assay type: biochemical; details: 5 ng/µl MMP-7, 16 h, 100 µM HHI (Fig. 11E)
T1 sequence (P09237 95-267): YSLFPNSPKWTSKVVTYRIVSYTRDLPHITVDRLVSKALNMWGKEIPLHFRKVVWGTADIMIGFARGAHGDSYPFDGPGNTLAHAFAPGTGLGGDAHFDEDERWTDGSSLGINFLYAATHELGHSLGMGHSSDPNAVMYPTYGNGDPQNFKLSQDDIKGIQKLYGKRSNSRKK
Method: (§1) For in vitro cleavage studies, recombinant E-Cadherin, EGFR and JAM chimera, IgA or Casein, (R&D Systems, Wiesbaden, Germany) were incubated with HtrA^wt, HtrA^S205A or MMP7 in 50 mM HEPES (pH 7.4) at 37°C for 16 h. Where indicated, HHI or MMP inhibitor II were added. Reactions were stopped by boiling in Laemmli buffer, followed by 8% SDS-PAGE and Western blotting.

β1-integrin = assay: Confocal microscopy of phospho-CagA and β1-integrin co-localization; assay type: cell-based; details: Hp-infected cells, preincubation with 100 µM HHI (Fig. 7C)
Method: (§2) For immunofluorescence staining, cells were grown for 24 h on glass coverslips, then fixed (4% paraformaldehyde in PBS), and permeabilized (0.2% Triton X-100 in PBS). Immunostaining was performed using anti-E-Cadherin (cl. 36 detects the intracellular domain, BD Biosciences), anti-E-Cadherin (HecD-1 detects the extracellular domain), ZO-1 (Invitrogen), anti-CagA (Immunological and Biochemical Testsystems GmbH, Reutlingen, Germany), anti-β1-integrin and anti-Hp. Secondary antibodies were labeled with Alexa-488 or Alexa-546 (Invitrogen). Filamentous actin was detected with Alexa Fluor 546-conjugated phalloidin (Invitrogen). For nuclei staining, 4',6-diamin-2-phenylin-dol-dihydrochloride (DAPI, Roche) was used as recommended by the manufacturer's instructions. Samples were analyzed by confocal laser scanning microscopy using a Zeiss LSM 510 Meta confocal microscope. Images were further processed using Corel Photopaint.

Hp [2] = assay: Hp translocation through the intercellular space of confluent monolayers (confocal microscopy, filter CFU); assay type: cell-based, Helicobacter pylori
Method: Hp strains Hp26695 and P12 were cultured on agar plates containing 10% horse serum under microaerophilic conditions at 37°C for 48 hours. For infection, bacteria were harvested in PBS Dulbecco's medium, pH 7.4, added to the host cells at a multiplicity of infection (MOI) of 50 or 100 for the indicated time periods and monitored using an inverse phase-contrast microscope (model TS 100, INTAS). To quantify bacteria translocating through cellular monolayers, MKN-28 cells were grown to confluence on filters prior to infection with Hp for 48 h. Translocating Hp were cultured and CFU were counted. All experiments were repeated 3-4 times.
as §2, with “For nuclei staining, 4',6-diamin-2-phenylin-dol-dihydrochloride (DAPI, Roche) was used as recommended by the manufacturer's instructions.” left out, “Images were further processed using Corel Photopaint.” left out

MKN-28 cells [3] = assay: Cell aggregation assay; assay type: cell-based, human; details: 50 ng/µl HtrAwt plus 100 µM HHI (Fig. 4E)
Method: For cell aggregation assays, 2 x 10^5 cells were trypsinized and seeded into BSA-coated 24-well plates, each well containing 500 µl of cell aggregation buffer (10 mM HEPES (pH 7.4), 150 mM NaCl, 0.7 mM CaCl2, 1% BSA, 0.01% trypsin). After stimulation at 37°C for 30 min on a rocking platform, cells were fixed in 500 µl of 4% paraformaldehyde for 20 min and observed using an inverse phase-contrast microscope.

HtrA = assay: In vitro cleavage of recombinant E-Cadherin by HtrA (Western blot); assay type: biochemical, Helicobacter pylori; details: 100 ng recombinant E-Cadherin, 100 ng/µl HtrA, 16 h
Method: as §1

MCF-7 = assay: In-situ immunofluorescence of E-Cadherin in Hp-infected cells; assay type: cell-based, human; details: MCF-7, Hp 16 h, 100 µM HHI (Fig. 5A)
Method: as §2

MKN-28 cells [4] = assay: Co-immunoprecipitation of β-Catenin and p120ctn in Hp-infected cells; assay type: cell-based, human; details: Hp 6 h, 100 µM HHI (Fig. 5B)
Method: Interaction between β-Catenin and p120^ctn was analyzed by co-immunoprecipitation studies. Cells were lysed and β-Catenin and p120^ctn were immunoprecipitated from cell lysates. Immobilized protein complexes were washed three times with lysis buffer, boiled in Laemmli buffer, separated by SDS-PAGE, and blotted on membranes.

TCF/LEF1 = assay: TOPflash/FOPflash luciferase reporter gene experiment; assay type: cell-based, human; details: MKN-28, Hp 24 h, 50 µM HHI (Fig. 5C)
Method: MKN-28 cells were cultured in 24-well plates and grown to 60% confluence. Cells were transfected with 100 ng TOPflash or 100 ng FOPflash (Upstate, Millipore, Bad Schwalbach/Taunus, Germany) and 4 ng phRL Null. As a positive control, cells were co-transfected with 100 ng β-Catenin (β-Cat^S33A) or empty vector for 12 h using Gene Juice transfection reagent (Novagen, Merck, Darmstadt, Germany) as recommended by the manufacturer's instructions. Eighteen hours after transfection, cells were infected with Hp at an MOI of 50, or left untreated. In further approaches, cells were incubated with 50 ng/µl HtrA^wt or HtrA^S205A mutant. After 24 h, cells were harvested in 100 µl reporter lysis buffer (Promega) and luciferase activity was determined in a dual channel luminometer. Results were normalized for transfection efficiency of cotransfected renilla luciferase plasmid.

Hp [5] = assay: Hp adherence and viability, colony forming units after infection of MKN-28 cells; assay type: cell-based, Helicobacter pylori
Method: For secretome analysis, Hp was grown in protein-free liquid brain heart infusion (BHI) medium (Merck) supplemented with β-cyclodextrin for 48 hours (Bumann et al., 2002). Supernatants of Hp BHI cultures were sterilized by filtration. Lysates of Hp were obtained by sonication in PBS containing 0.1% Triton X-100. To quantify colony forming units (CFU) of Hp, cells were infected with Hp in the presence or absence of HHI. After 16-24 h cells were washed twice with PBS, harvested in BHI supplemented with β-cyclodextrin and seeded on Hp plates. After 72 h, colonies were counted.

CCOc1ccc2nc(NC(=O)CSc3nnc(-c4ccc(S(=O)(=O)N5CCCC5)cc4)o3)sc2c1 [HHI] was tested, and the “secretion of HtrA into the infected cell supernatant” value (MKN-28 cells [1]; 16 and 24 h (Fig. 4D)) was “could be excluded”, the “Hp-induced ectopic E-Cadherin cleavage in infected MKN-28 cells” value (MKN-28 cells [1]; Hp infection 16 and 24 h (Fig. 4D)) was “clearly inhibited” and the “T4SS-dependent secretion of interleukin-8 (IL-8) of Hp-infected cells” value (interleukin-8 (IL-8)) was “unaffected”. For the same compound, the “amount of total CagA” value (CagA; 100 µM HHI preincubation (Fig. 7A)) was “not altered”, the “injected phospho-CagA in Hp-infected cells” value (CagA; 100 µM HHI preincubation, 16 h and 24 h (Fig. 7A)) was “decreased” and the “MMP7-mediated E-Cadherin cleavage activity” value (MMP-7) was “did not affect”. For the same compound, the “co-localization of phospho-CagA with β1-integrin at the basolateral membrane” value (β1-integrin) was “efficiently prevented”, the “Hp invasion through the intercellular space of confluent MKN-28 cells growing on filters” value (Hp [2]; 100 µM HHI, Hp 48 h, CFU counted, p = 0.01 (Fig. 6B)) was “significantly inhibited” and the “number of translocating bacteria in intercellular spaces” value (Hp [2]; MKN-28 monolayers, confocal microscopy, 48 h, 100 µM HHI (Fig. 6A)) was “greatly reduced”. For the same compound, the “E-Cadherin-mediated cell aggregation of HtrAwt-treated cells” value (MKN-28 cells [3]) was “did not form aggregates, unless HHI was also added”, the “HHI concentration sufficient to partly block HtrA-mediated E-Cadherin cleavage” value (HtrA) was 10 µM and the “HHI concentration that blocked cleavage completely” value (HtrA) was 30 µM. The “Hp-induced loss of E-Cadherin-dependent intercellular adhesion” value (MCF-7) was “blocks; also recorded: efficiently blocked”, the “loss of β-Catenin in the precipitated p120ctn immunocomplex upon Hp infection” value (MKN-28 cells [4]) was “not reverted” and the “Hp-induced luciferase activity (TOP/FOP)” value (TCF/LEF1) was “unaffected”. For the same compound, the “Hp adherence and Hp viability” value (Hp [5]; 100 µM HHI (Fig. 11C)) was “could be excluded; also recorded: not affecting” and the “relative CFU colony forming units (CFU)” value (Hp [5]; 100 µM HHI, 16 h and 24 h infection, colonies counted after 72 h (Fig. 11C)) was “no significant difference”.
